From US20060154990A1, “Use of MEK inhibitors in treating abnormal cell growth” (AGOURON PHARMACEUTICALS, INC., priority 2004, published 2006)
Values joined by “and” are separate entries in the source; they are usually repeats but may differ in a detail not shown here. Equal values may be shown once.

What was measured:
[1] = Metabolites of [14C] Compound 1 in cryopreserved hepatocytes; type: in vitro ADME, human; conditions: [C-14] Compound 1 10 μM, 180 mins, listed as M 15
Protocol: (§1) Incubations were performed in hepatocytes for 3 hours and liver microsomes for 1.5 hours and were stopped with the addition of methanol. HPLC, in conjuction with ionspray 3D iontrap mass spectrometry, and simultaneous radioactive monitoring were used to detect and identify the resulting metabolites.
(§2) Metabolite identification of radiolabeled Compound 1 was performed after incubation with rat, dog, monkey and human cryopreserved hepatocytes and liver microsomes. […] Besides glucuronidation, metabolites derived from other clearance pathways are also observed. For instance, M 15 (acid cleavage product) accounts for 11% of the total radioactivity in the human chromatogram.

[2] = test system: ERK phosphorylation in tumor cells; test: ERK phosphorylation in tumor cells grown in culture with 10% serum; type: cell-based; conditions: tumor cells in culture, 10% serum; read-out: IC50, reducing ERK phosphorylation
MEK1 = MEK1 (Homo sapiens, UniProt Q02750); test: Cascade assay with raf-1, MEK1 and ERK1 (DELFIA readout); type: biochemical; conditions: purified MEK1, cascade assay raf-1/MEK1/ERK1; read-out: MEK enzyme IC50
Sequence of MEK1 (Q02750 whole entry, species assumed): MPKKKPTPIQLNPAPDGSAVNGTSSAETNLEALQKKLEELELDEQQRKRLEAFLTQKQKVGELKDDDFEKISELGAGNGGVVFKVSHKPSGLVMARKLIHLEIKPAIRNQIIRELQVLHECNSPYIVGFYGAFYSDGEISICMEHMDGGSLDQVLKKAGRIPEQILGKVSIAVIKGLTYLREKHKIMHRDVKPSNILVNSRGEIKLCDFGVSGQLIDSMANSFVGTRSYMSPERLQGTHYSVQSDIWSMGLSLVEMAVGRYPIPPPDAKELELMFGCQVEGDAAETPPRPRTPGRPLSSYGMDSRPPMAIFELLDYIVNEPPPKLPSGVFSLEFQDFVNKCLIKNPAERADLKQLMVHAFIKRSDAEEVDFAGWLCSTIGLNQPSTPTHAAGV

pERK in C26 tumors = test: Tumor pERK inhibition and PK-PD in C26 tumor-bearing mice; type: in vivo; conditions: C26 tumor-bearing animals
[3] = Metabolites of [14C] Compound 1 in liver microsomes; type: in vitro ADME, rat; conditions: [C-14] Compound 1 10 μM, 90 mins
Protocol: as §1
(§3) This acid cleavage product is further metabolized to form hydroxylated (M 11, 16% in rat) and hydroxylated, defluorinated products (M 17, 19% in rat).

[4] = as above; type: in vitro ADME, dog; conditions: [C-14] Compound 1 10 μM, 90 mins
Protocol: as §1, §3

[5] = Metabolites of [14C] Compound 1 in cryopreserved hepatocytes; type: in vitro ADME, monkey; conditions: [C-14] Compound 1 10 μM, 180 mins
Protocol: as §1, §2

[6] = as above; type: in vitro ADME, dog; conditions: [C-14] Compound 1 10 μM, 180 mins
Protocol: as §1, §2

[7] = Metabolites of [14C] Compound 1 in liver microsomes; type: in vitro ADME, monkey; conditions: [C-14] Compound 1 10 μM, 90 mins
Protocol: as §1, §3

[8] = Metabolites of [14C] Compound 1 in cryopreserved hepatocytes; type: in vitro ADME, rat; conditions: [C-14] Compound 1 10 μM, 180 mins
Protocol: as §1, §2

[9] = Metabolites of [14C] Compound 1 in liver microsomes; type: in vitro ADME, human; conditions: [C-14] Compound 1 10 μM, 90 mins, listed as M 15
Protocol: as §1, §3

[10] = Plasma pharmacokinetics after multiple oral doses in advanced cancer patients; conditions: for AUC of Compound 2 as % of the parent (median): human plasma
Protocol: Pharmacokinetic data are presented for the first 38 subjects.
Blood samples were collected from patients into a purple-top potassium EDTA Vacutainer tube. Following mixing with gentle inversion (8-10 times), tubes were centrifuged within 20 minutes at 1000×g for 15 minutes, to harvest plasma. Plasma samples were stored at −20° C. until analysis.
The following results are based on preliminary pharmacokinetic parameters from the 38 subjects, estimated using nominal collection times and quality-controlled, non quality-assured bioanalytical data. Pharmacokinetic parameters were determined by the non-compartmental method using WINNONLIN Professional Edition (Version 4.1). […] The maximum observed concentration (Cmax) was obtained by inspection of the concentration data. The time to reach the Cmax was the first time at which Cmax is observed and obtained by inspection of the data. The pre-dose concentration (Ctrough) was obtained by inspection of the concentration data.

[11] = test system: ERK phosphorylation in colon 26 cells; test: cells; conditions: Mus musculus, Colon 26, read-out: Cellular activity IC50

SMILES	% ROI Human [1]	IC50 [2] [nM]	IC50 (MEK1) [nM]	target suppression of pERK in tumors (pERK in C26 tumors; 2 hours after 75 mg/kg IV) [%]	pERK activity in tumors (pERK in C26 tumors; 24 hours after 75 mg/kg IV)	% ROI Rat [3] [%]	% ROI Dog [4] [%]	% ROI Monkey [5] [%]	% ROI Dog [6] [%]	% ROI Monkey [7] [%]	% ROI Rat [8] [%]	% ROI Human [9]	increase of AUC of Compound 2 ([10]; after 21-day multiple BID dosing of Compound 1)	AUC of Compound 2 as % of the parent (median) ([10]; multiple dosing of Compound 1) [%]	AUC of Compound 2 as % of the parent (median) ([10]; single dosing of Compound 1)	terminal plasma half-life compared with parent ([10]; patients, after oral Compound 1)	IC50 [11] [nM]
O=C(O)c1ccc(F)c(F)c1Nc1ccc(I)cc1F [Compound 2]	11% and 11.07%	1300	66	98	returned to control levels	1.86	4.12	1.72	2.46	5.24	4.31	9% and 8.73%	2.0-5.0 fold	~120	approximately 66%	longer than that of the parent drug	
O=C(NOC[C@@H](O)CO)c1ccc(F)c(F)c1Nc1ccc(I)cc1F [Compound 3]																	0.83
